Legend:
AD brain-enriched PHF = AD brain-enriched PHF (Homo sapiens, UniProt P10636); assay: Assay 2 (filter trap): radio-binding assay, determination of the dissociation constant (Kd) on PHF; conditions: tritiated ligand 1.25-50 nM, PHF diluted 1/80, 45 min 37° C.
Method: Enrichment of Paired Helical Filaments (PHF's) from Human Alzheimer's Disease Brain
50 g of frontal lobe tissue from post-mortem brain of an Alzheimer's disease (AD) patient were obtained from the London Tissue Bank. The patient was a […] and died […]. The brain sample was collected 5 hours post-mortem and characterized for Braak disease stage (Braak, H.; Braak, E. Acta Neuropathol., 1991, 82, 239-259) as stage VI. […]
AD brain-enriched PHF were diluted 1/80 (with an estimated tau concentration of 62.5 ng/ml and incubated with [^3H]RefA at different concentrations ranging from 50 nM to 1.25 nM. The reaction was performed in a final volume of 70 μL PBS with 2.8% DMSO, for 45 min at 37° C. 30 μL of samples in duplicates were then filtered under vacuum on a GF/B filter plate (PerkinElmer 6005177) to trap the PHF with the bound radio-ligand, and washed three times with PBS. The GF/B filters were then vacuum-dried, 20 μL scintillation liquid (PerkinElmer 1200-436) was added in each well, and the filters were analyzed on a Microbeta Trilux device. […] Specific binding was calculated by subtracting the non-specific signal to the total signal. […] The Kd values were calculated by nonlinear regression, one site specific binding using Prism V5 (GraphPad). […]

[1] = test system: tau tangles/Aβ plaques on AD brain sections; assay: Assay 1: direct staining of human Alzheimer's disease brain sections (fluorescence); format: binding; conditions: 100 μM; FIG. 1
Outline: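 Compounds (100 μM, 50% aqueous ethanol, 20 min, RT, dark) applied directly to fixed […] frozen amygdala sections of Braak stage V-VI Alzheimer's brains. After washing and 0.1% Sudan Black treatment against autofluorescence, sections were imaged microscopically for fluorescent staining.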

[2] = target: T1, in vitro aggregated Abeta1-42 (Homo sapiens, UniProt P05067); assay: Assay 2 (filter trap): [3H]RefA radio-binding assay, Kd on aggregated Abeta1-42; conditions: Table 23; aggregated Abeta1-42 versus AD brain-enriched PHF
T1 construct: Abeta1-42 (Bachem, Switzerland) peptide films were re-suspended in 1% DMSO; purchased Bachem, Switzerland
T1 sequence (P05067 672-713 limits assumed): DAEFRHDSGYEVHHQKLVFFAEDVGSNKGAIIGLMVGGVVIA
Method: Preparation of Full-Length Tau and Abeta1-42 Aggregates
Recombinant human full-length Tau441 (flTau) was expressed in bacteria and purified in the laboratory of Professor Hilal Lashuel (EPFL, Switzerland). A solution of 8 μM (400 μg/mL) flTau in PBS, 10 μM DTT and 5 μM heparin (all from Sigma-Aldrich) was gently mixed (cradled) for 3 days at 37° C. Cradled flTau aggregates were used at a final concentration of 20 μg/mL in all binding assays. Abeta1-42 (Bachem, Switzerland) peptide films were re-suspended in 1% DMSO and diluted in PBS to a 33 μM (150 μg/mL) suspension that was sonicated until complete dissolution. Aggregation process was done at 37° C. for 24 hours. […]
AD brain-enriched PHF were diluted 1/80 (with an estimated tau concentration of 62.5 ng/ml and incubated with [^3H]RefA at different concentrations ranging from 50 nM to 1.25 nM. The reaction was performed in a final volume of 70 μL PBS with 2.8% DMSO, for 45 min at 37° C. 30 μL of samples in duplicates were then filtered under vacuum on a GF/B filter plate (PerkinElmer 6005177) to trap the PHF with the bound radio-ligand, and washed three times with PBS. The GF/B filters were then vacuum-dried, 20 μL scintillation liquid (PerkinElmer 1200-436) was added in each well, and the filters were analyzed on a Microbeta Trilux device. […] Specific binding was calculated by subtracting the non-specific signal to the total signal. […]

amyloid-beta = assay: Autoradiography on human brain sections with an 18F amyloid binding compound (selectivity); conditions: FIG. 13
Method: 18 micron thick frozen human brain slices and 6 micron thick human FFPE brain slices from the frontal and/or temporal lobes of AD patients were examined via autoradiography. Brain sections were equilibrated for at least 1 h in 1×PBS solution prior to use in the experiment. Each brain section was covered with a solution of the F-18 labeled tracer (200 Bq/μl, 500 μl) in 1×PBS. For blocking experiments with the corresponding 19F-labeled compound, an excess of the blocking compound was mixed with the 18F-compound to yield an end concentration of 10 μM. The brain sections were allowed to incubate with the tracer solution at room temperature for 1 h, drained afterwards and placed in a slide holder. The slides were then washed sequentially with 1×PBS for 1 min; 70% EtOH in 1×PBS for 2 min; 30% EtOH in 1×PBS for 2 min; and 1×PBS for 1 min. The slides were allowed to air-dry before being placed on Fuji imaging plates for overnight exposure. The imaging plates were scanned and the signal was measured using Fuji software to produce an autoradiographic image of the brain section. Representative examples of autoradiography studies with ^18F-178, ^18F-189, ^18F-161, ^18F-95, ^18F-168, ^18F-146, ^18F-156, ^18F-159 are shown in FIGS. 9 to 12. […] Additionally, selectivity was determined by using a tracer binding to amyloid-beta.

Sequence of AD brain-enriched PHF (P10636 623-708 limits assumed): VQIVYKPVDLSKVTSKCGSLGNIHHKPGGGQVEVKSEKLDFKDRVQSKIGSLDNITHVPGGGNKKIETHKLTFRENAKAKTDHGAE

Row | Compound | Kd (AD brain-enriched PHF) | direct staining of tau tangles on AD brain section [1] | Fold increase on Abeta1-42 vs PHF [2] | competition with ^18F amyloid binding compound (amyloid-beta)
1 | CNc1ccc(-c2ccc3ccc(O)cc3n2)cc1 [RefA] | 35 nM | direct staining of tau tangles | 5 | 
2 | Cn1c2ccncc2c2ccc(Nc3cccc(OCC[18F])c3)nc21 [^18F-44] |  |  |  | no competition
3 | Cn1c2ccncc2c2ccc(Nc3cncc(OCC[18F])c3)nc21 [^18F-59] |  |  |  | no competition

Source: patent publication US10662193B2, “Carbazole and carboline compounds for use in the diagnosis, treatment, alleviation or prevention of disorders associated with amyloid or amyloid-like proteins” (AC IMMUNE SA, priority 2014, dated 2020)
